Here are results for seven compounds from PubChem BioAssay (NCI).

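Tested at 5 concentrations; 48 h exposure; 96-well plates; endpoints linearly interpolated, else capped at highest concentration. GI50 = concentration required for 50% inhibition of growth. At the TGI there is no net growth.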

Test systems include SW-620 colon; BT-549 breast; MDA-MB-435; A498 renal; MALME-3M melanoma; UACC-257 melanoma; SR leukemia; SN12C renal; SF-295 CNS; HCT-15 colon.
What all share (assay): inhibition of tumour cell growth, NCI panel, 48 h

As to `N#Cc1ccc(O)c(C2=NCC(c3cccc(Oc4ccccc4)c3)O2)c1` (stereo unspecified), the GI50 with SW-620 colon was 0.508 µM; in the test with BT-549 breast, 1.96 µM; with MDA-MB-435, 1.63 µM; in the test with A498 renal it was 2.06 µM; in the test on MALME-3M melanoma it was 1.83 µM; in the test on UACC-257 melanoma it was 2.28 µM. In addition, the GI50 in the test with SR leukemia is 0.933 µM; with SN12C renal, 1.21 µM; in the test on SF-295 CNS it was 0.413 µM; in the test on HCT-15 colon, 0.363 µM. Besides, the TGI with SW-620 colon was 22.8 µM; in the test on BT-549 breast it was 17.8 µM; in the test with MDA-MB-435, greater than 100 µM; with A498 renal, 22.3 µM; with MALME-3M melanoma it was 7.76 µM; in the test on UACC-257 melanoma it was 7.29 µM. In addition, the TGI in the test on SR leukemia was greater than 100 µM; in the test on SN12C renal, 89.5 µM; with SF-295 CNS it was 23.5 µM; in the test on HCT-15 colon, 36.1 µM.

For `O=C(N/N=C/c1ccccc1O)c1ccccc1Nc1ccnc(C(F)(F)F)c1`, the GI50 is 2.04 µM with SW-620 colon; 0.527 µM with BT-549 breast; 1.37 µM with MDA-MB-435; 18.1 µM with A498 renal; 0.858 µM with MALME-3M melanoma; 0.396 µM with UACC-257 melanoma. Also, the GI50 is 0.197 µM in the test with SR leukemia, 0.974 µM in the test on SN12C renal, 0.573 µM with SF-295 CNS and 0.177 µM in the test on HCT-15 colon. Moreover, the TGI with SW-620 colon is greater than 100 µM; in the test on BT-549 breast it was 59 µM; in the test on MDA-MB-435 it was greater than 100 µM; with A498 renal it was greater than 91.6 µM; with MALME-3M melanoma, 19.2 µM; in the test on SN12C renal, 72.6 µM. Further, the TGI in the test on SF-295 CNS is 27.6 µM; in the test on HCT-15 colon it was greater than 100 µM.

For the compound `CCCn1cnc2c(SCc3ccccc3Cl)nc(N)nc21`, the GI50 in the test on SW-620 colon is 11.9 µM; with BT-549 breast, 13.7 µM; with MDA-MB-435, 13.6 µM; in the test on A498 renal, 18.3 µM; in the test with MALME-3M melanoma, 21.4 µM; in the test on UACC-257 melanoma, 27.8 µM. In addition, the GI50 with SR leukemia is 2.23 µM; in the test with SN12C renal, 19.6 µM; with SF-295 CNS, 10.2 µM; in the test with HCT-15 colon it was 1.36 µM. Further, the TGI with SW-620 colon was greater than 100 µM; with BT-549 breast, 44 µM; in the test on MDA-MB-435, 37 µM; in the test with A498 renal it was greater than 100 µM; in the test with MALME-3M melanoma it was 58.7 µM; with UACC-257 melanoma, 93.8 µM. The TGI with SR leukemia was determined as 14.2 µM; in the test with SN12C renal, 95.2 µM; in the test on SF-295 CNS, 30.4 µM; in the test on HCT-15 colon it was 20.1 µM.

For the compound `CCN(CC)c1ccc(/C=C/c2ccc3cc(C)ccc3[n+]2CC)cc1`, the GI50 in the test on SW-620 colon was 0.229 µM; in the test on BT-549 breast, 0.0314 µM; in the test on MDA-MB-435 it was 0.113 µM; in the test with A498 renal, 0.149 µM; with MALME-3M melanoma, 0.149 µM; with UACC-257 melanoma, 0.116 µM. Moreover, the GI50 was 0.09 µM with SR leukemia, 0.124 µM in the test with SN12C renal, 0.0658 µM in the test with SF-295 CNS and 1.32 µM with HCT-15 colon. Also, the TGI in the test with SW-620 colon was 15.6 µM; in the test with BT-549 breast, 1.39 µM; in the test on MDA-MB-435, 1.28 µM; in the test with A498 renal, 1.78 µM; in the test with MALME-3M melanoma it was 1.33 µM; in the test on UACC-257 melanoma it was 1.28 µM. Also, the TGI in the test with SR leukemia was found to be 2.28 µM; in the test on SN12C renal, 1.2 µM; in the test on SF-295 CNS, 0.864 µM; in the test on HCT-15 colon, 12.9 µM.

Consider `N#CSc1c[nH]c2cccc(/C=C/C(=O)/C=C(/C=C/c3cccc4[nH]cc(SC#N)c34)OB(F)F)c12`, for which the GI50 was 0.351 µM in the test with SW-620 colon; 1.26 µM with BT-549 breast; 0.27 µM in the test with MDA-MB-435; 2.01 µM in the test with A498 renal; 0.272 µM in the test on MALME-3M melanoma; 1.98 µM in the test with UACC-257 melanoma. The GI50 with SR leukemia was 0.345 µM; in the test on SN12C renal, 0.495 µM; in the test on SF-295 CNS it was 2.68 µM; in the test with HCT-15 colon, 0.315 µM. Further, the TGI in the test on SW-620 colon worked out at 1.33 µM; in the test with BT-549 breast, 3.86 µM; with MDA-MB-435 it was 0.869 µM; in the test on A498 renal, 6.97 µM; in the test with MALME-3M melanoma, 0.824 µM; in the test with UACC-257 melanoma, 10.9 µM. Further, the TGI with SR leukemia is greater than 100 µM; with SN12C renal, 3.72 µM; with SF-295 CNS, 9.16 µM; in the test with HCT-15 colon, 1.49 µM.

In the case of `CC[C@@]1(O)C(=O)OCc2c1cc1n(c2=O)Cc2c-1nc1cc3c(cc1c2CCl)OCO3`, the GI50 in the test with SW-620 colon is less than 0.0136 µM; in the test on BT-549 breast, 0.106 µM; in the test on MDA-MB-435, 0.0592 µM; in the test with A498 renal, less than 0.0151 µM; in the test with MALME-3M melanoma, 0.0629 µM; in the test on UACC-257 melanoma, less than 0.0446 µM. Moreover, the GI50 is less than 0.01 µM in the test with SR leukemia, less than 0.01 µM in the test with SN12C renal, less than 0.01 µM in the test with SF-295 CNS and 0.192 µM in the test on HCT-15 colon. The TGI with BT-549 breast came to 3.99 µM; in the test with MDA-MB-435, 2.24 µM; with A498 renal it was 0.753 µM; with MALME-3M melanoma it was 2 µM; in the test with UACC-257 melanoma, 1.59 µM; with SN12C renal, 0.367 µM. Further, the TGI with SF-295 CNS turned out to be 0.0252 µM; with HCT-15 colon it was 12.3 µM.

For `C[C@@H]1OC(O)[C@@H](F)[C@H](O)[C@@H]1O` (stereo partly specified), the GI50 in the test on SW-620 colon, in the test on BT-549 breast, in the test on MDA-MB-435, with A498 renal, with MALME-3M melanoma and in the test on UACC-257 melanoma was greater than 100 µM in each case. The GI50 in the test with SR leukemia, in the test with SN12C renal, with SF-295 CNS and in the test on HCT-15 colon was greater than 100 µM in each case. The TGI with SW-620 colon, in the test with BT-549 breast, with MDA-MB-435, in the test with A498 renal, in the test with MALME-3M melanoma and with UACC-257 melanoma was greater than 100 µM in each case. Also, the TGI in the test with SR leukemia, with SN12C renal, in the test with SF-295 CNS and in the test with HCT-15 colon was greater than 100 µM in each case.
